Legend:
Assay in all cases: Test E
[1] = system: ITALN. RYEGRASS; type: in vivo, Lolium multiflorum
[2] = system: JET RAPE; type: in vivo, Brassica napus cv. Jet Neuf
[3] = system: ANN. BLUEGRASS; type: in vivo, PO annua
[4] = system: CTCHWD BEDSTRAW; type: in vivo, Galium aparine
[5] = system: KOCHIA; type: in vivo, Kochia scoparia
[6] = system: BONANZA BARLEY; type: in vivo, Hordeum vulgare cv. Bonanza
[7] = system: LAMBSQUARTER; type: in vivo, Chenopodium album
[8] = system: PARK WHEAT; type: in vivo, Triticum aestivum cv. Park

Row | SMILES | plant response ([1]; POSTEMERGENCE 0064 GM/HA) | plant response ([1]; POSTEMERGENCE 0125 GM/HA) | plant response ([1]; POSTEMERGENCE 0250 GM/HA) | plant response ([1]; POSTEMERGENCE 0500 GM/HA) | plant response ([2]; POSTEMERGENCE 0064 GM/HA) | plant response ([2]; POSTEMERGENCE 0125 GM/HA) | plant response ([2]; POSTEMERGENCE 0250 GM/HA) | plant response ([2]; POSTEMERGENCE 0500 GM/HA) | plant response ([3]; POSTEMERGENCE 0064 GM/HA) | plant response ([3]; POSTEMERGENCE 0125 GM/HA) | plant response ([3]; POSTEMERGENCE 0250 GM/HA) | plant response ([3]; POSTEMERGENCE 0500 GM/HA) | plant response ([4]; POSTEMERGENCE 0064 GM/HA) | plant response ([4]; POSTEMERGENCE 0125 GM/HA) | plant response ([4]; POSTEMERGENCE 0250 GM/HA) | plant response ([4]; POSTEMERGENCE 0500 GM/HA) | plant response ([5]; POSTEMERGENCE 0064 GM/HA) | plant response ([5]; POSTEMERGENCE 0125 GM/HA) | plant response ([5]; POSTEMERGENCE 0250 GM/HA) | plant response ([5]; POSTEMERGENCE 0500 GM/HA) | also measured
1 | C=C(c1ccc(F)cc1)C(O)(Cn1cncn1)c1ccccc1F (centres unmarked) [Example 644] | 0% | 20% | 50% | 40% | 0% | 0% | 0% | 30% | 20% | 50% | 50% | 80% | 0% | 30% | 30% | 30% | 0% | 0% | 50% | 70% | plant response ([1]; PREEMERGENCE 0500 GM/HA): 0%; plant response ([2]; PREEMERGENCE 0500 GM/HA): 20%; plant response ([3]; PREEMERGENCE 0500 GM/HA): 80%; plant response ([4]; PREEMERGENCE 0500 GM/HA): 0%; plant response ([5]; PREEMERGENCE 0500 GM/HA): 100%; plant response ([6]; POSTEMERGENCE 0064 GM/HA): 0%; plant response ([6]; POSTEMERGENCE 0125 GM/HA): 20%; plant response ([6]; POSTEMERGENCE 0250 GM/HA): 20%; plant response ([6]; POSTEMERGENCE 0500 GM/HA): 40%; plant response ([6]; PREEMERGENCE 0500 GM/HA): 50%; plant response ([7]; POSTEMERGENCE 0064 GM/HA): 0%; plant response ([7]; POSTEMERGENCE 0125 GM/HA): 0%; plant response ([7]; POSTEMERGENCE 0250 GM/HA): 20%; plant response ([7]; POSTEMERGENCE 0500 GM/HA): 40%; plant response ([7]; PREEMERGENCE 0500 GM/HA): 85%; plant response ([8]; POSTEMERGENCE 0064 GM/HA): 0%; plant response ([8]; POSTEMERGENCE 0125 GM/HA): 20%; plant response ([8]; POSTEMERGENCE 0250 GM/HA): 30%; plant response ([8]; POSTEMERGENCE 0500 GM/HA): 40%; plant response ([8]; PREEMERGENCE 0500 GM/HA): 30%
2 | C=C(c1ccccc1)C(O)(Cn1cncn1)c1ccc(F)cc1F (centres unmarked) [Example 52, 2-(2,4-Difluorophenyl)-3-phenyl-1-(1H-1,2,4-triazol-1-yl)-3-buten-2-ol] | 0% | 20% | 50% | 80% | 0% | 0% | 20% | 40% | 30% | 40% | 60% | 70% | 20% | 80% | 70% | 100% | 0% | 0% | 0% | 70% | plant response ([1]; PREEMERGENCE 0250 GM/HA): 70%; plant response ([2]; PREEMERGENCE 0250 GM/HA): 20%; plant response ([3]; PREEMERGENCE 0250 GM/HA): 100%; plant response ([4]; PREEMERGENCE 0250 GM/HA): 100%; plant response ([5]; PREEMERGENCE 0250 GM/HA): 0%; plant response ([6]; POSTEMERGENCE 0064 GM/HA): 0%; plant response ([6]; POSTEMERGENCE 0125 GM/HA): 20%; plant response ([6]; POSTEMERGENCE 0250 GM/HA): 20%; plant response ([6]; POSTEMERGENCE 0500 GM/HA): 40%; plant response ([6]; PREEMERGENCE 0250 GM/HA): 100%; plant response ([7]; POSTEMERGENCE 0064 GM/HA): 0%; plant response ([7]; POSTEMERGENCE 0125 GM/HA): 0%; plant response ([7]; POSTEMERGENCE 0250 GM/HA): 0%; plant response ([7]; POSTEMERGENCE 0500 GM/HA): 10%; plant response ([7]; PREEMERGENCE 0250 GM/HA): 100%; plant response ([8]; POSTEMERGENCE 0064 GM/HA): 30%; plant response ([8]; POSTEMERGENCE 0125 GM/HA): 30%; plant response ([8]; POSTEMERGENCE 0250 GM/HA): 40%; plant response ([8]; POSTEMERGENCE 0500 GM/HA): 50%; plant response ([8]; PREEMERGENCE 0250 GM/HA): 70%
